Test results: patent US20230094076A1, “COMBINATION THERAPY” (GlaxoSmithKline Intellectual Property Development Limited, priority 2016, published 2023)
Like-named read-outs stand apart in the source and are kept apart here.

Assays:
[1] = test system: Toledo (human DLBCL) xenograft; conditions: for Body weight Difference (vs. vehicle) / Regression: Toledo (DLBCL), Day 28
PRMT8 = PRMT8 (Homo sapiens, UniProt Q9NR22); test: PRMT family radioactive assay; type: biochemical
PRMT3 = PRMT3 (Homo sapiens, UniProt O60678); test: PRMT family radioactive assay; type: biochemical
PRMT4 = PRMT4 (Homo sapiens, UniProt Q86X55); test: PRMT family radioactive assay; type: biochemical
[2] = test system: human renal cell carcinoma xenografts (ACHN); conditions: for Body weight Difference (vs. vehicle) / Regression: ACHN (ccRCC)
NSCLC cell lines = conditions: percent of cell lines, 25 cell lines
Method: (§1) The growth of all cell lines was evaluated over time across a wide range of seeding densities to identify conditions that permitted proliferation throughout the entire 6-day assay. Cells were plated at the optimal seeding density and after overnight incubation, a 20-point 2-fold titration of compound was added and plates were incubated for 6 days. A replicate plate of cells was harvested at the time of compound addition to quantify the starting number of cells (T0). Values obtained after the 6 day treatment were expressed as a function of the T0 value and plotted against compound concentration. The T0 value was normalized to 100% and represents the number of cells at the time of compound addition. The data were fit with a 4 parameter equation to generate a concentration response curve and the growth IC50 (gIC50) was determined. The gIC50 is the midpoint of the ‘growth window’, the difference between the number of cells at the time of compound addition (To) and the number of cells after 6 days (DMSO control). The growth-death assay can be used to quantify the net population change, clearly defining cell death (cytotoxicity) as fewer cells compared to the number at the time of compound addition (T0).

G-401 = conditions: G-401, Wilm's, 6-day
Method: as §1

NOMO-1 = conditions: NOMO-1, AML subtype M5, 6-day
Method: as §1

SHI-1 = conditions: SHI-1, AML subtype M5, 6-day
Method: as §1

SKM-1 = conditions: SKM-1, AML subtype M5, 6-day
Method: as §1

HT144 = conditions: HT144, melanoma, 6-day
Method: as §1

MV-4-11 = conditions: MV-4-11, AML subtype M5, 6-day
Method: as §1

[3] = test system: Prostate cancer cell lines; conditions: 4 cell lines
Method: as §1

MDA-MB- = conditions: melanoma, 6-day
Method: as §1

Colon cancer cell lines = conditions: percent of cell lines, 34 cell lines
Method: as §1

SW156 = conditions: SW156, ccRCC, 6-day
Method: as §1

[4] = test system: Toledo (human DLBCL) xenograft; conditions: for Body weight Difference (vs. vehicle): Toledo (DLBCL), Day 25
PRMT5/MEP50 = PRMT5/MEP50 (Homo sapiens, UniProt O14744); test: PRMT family radioactive assay; type: biochemical; conditions: 60 minute SAM:Enzyme:Compound A preincubation
U2932 = test system: U2932
Description: (§2) FIG. 18: Propidium iodide FACS analysis of cell cycle in human lymphoma cell lines. […] Data represents the average±SEM of biological replicates, n=2.

OCI-Ly1 = test system: OCI-Ly1
Description: as §2

Toledo = test system: Toledo
Description: as §2

[5] = test system: arginine methylation (ADMA, MMA, SDMA) in Toledo cells; test: Western analysis of arginine methylation, time course; type: cell-based, human; conditions: 0.4 μM
Method: (B) Representative western blots of arginine methylation marks. Regions quantified are denoted by black bars on the right of the gel.
As predicted, ADMA methylation decreased while MMA increased upon compound exposure (FIG. 12). […] Given the detection of numerous substrates with varying kinetics, and variability of ADMA levels among DMSO-treated samples, both the full lane and a prominent 45 kDa band were characterized to assess ADMA. Increases in MMA were apparent by 24 hours and near maximal by 48 hours while decreases in the 45 kDa ADMA band required 72-96 hours to achieve maximal effect. Increases in SDMA were apparent after 48 hours of compound exposure and continued to increase through 120 hours, consistent with the potential switch from conversion of MMA to ADMA by Type I PRMTs to SDMA by Type II PRMTs (FIG. 12).

PRMT9 = PRMT9 (Homo sapiens, UniProt Q6P2P2); test: PRMT family radioactive assay; type: biochemical; conditions: 60 minute SAM:Enzyme:Compound A preincubation
[6] = 60 minute SAM:Enzyme:Compound A preincubation
[7] = 600 QD mg/kg oral, arm terminated at day 31

PRMT4, sequence (Q86X55 whole entry): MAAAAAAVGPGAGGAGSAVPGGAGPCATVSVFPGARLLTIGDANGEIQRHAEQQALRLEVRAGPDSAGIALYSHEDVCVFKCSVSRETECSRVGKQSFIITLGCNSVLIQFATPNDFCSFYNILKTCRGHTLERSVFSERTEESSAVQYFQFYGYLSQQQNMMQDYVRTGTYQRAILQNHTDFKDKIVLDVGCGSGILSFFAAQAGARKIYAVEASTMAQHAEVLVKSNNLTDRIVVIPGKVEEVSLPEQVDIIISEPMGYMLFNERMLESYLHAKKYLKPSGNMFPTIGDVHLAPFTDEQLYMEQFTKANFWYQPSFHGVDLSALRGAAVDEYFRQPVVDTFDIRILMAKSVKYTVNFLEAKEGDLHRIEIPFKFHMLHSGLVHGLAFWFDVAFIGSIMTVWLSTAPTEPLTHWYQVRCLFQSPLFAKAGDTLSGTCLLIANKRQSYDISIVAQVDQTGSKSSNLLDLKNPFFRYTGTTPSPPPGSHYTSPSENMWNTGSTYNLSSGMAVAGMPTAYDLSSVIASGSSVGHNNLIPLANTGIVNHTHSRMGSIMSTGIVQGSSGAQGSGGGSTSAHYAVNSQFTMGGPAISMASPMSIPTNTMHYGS
PRMT8, sequence (Q9NR22 whole entry): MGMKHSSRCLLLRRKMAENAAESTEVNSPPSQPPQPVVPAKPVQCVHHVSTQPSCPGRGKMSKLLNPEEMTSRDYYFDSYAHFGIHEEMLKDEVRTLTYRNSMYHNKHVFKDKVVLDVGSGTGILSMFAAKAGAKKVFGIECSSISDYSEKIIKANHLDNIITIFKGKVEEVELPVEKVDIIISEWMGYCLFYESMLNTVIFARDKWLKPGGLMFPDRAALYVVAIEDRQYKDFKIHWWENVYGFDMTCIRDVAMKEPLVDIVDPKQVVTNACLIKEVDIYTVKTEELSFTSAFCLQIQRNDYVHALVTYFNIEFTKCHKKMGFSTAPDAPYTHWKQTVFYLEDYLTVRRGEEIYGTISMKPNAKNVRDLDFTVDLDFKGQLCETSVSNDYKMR
PRMT3, sequence (O60678 whole entry): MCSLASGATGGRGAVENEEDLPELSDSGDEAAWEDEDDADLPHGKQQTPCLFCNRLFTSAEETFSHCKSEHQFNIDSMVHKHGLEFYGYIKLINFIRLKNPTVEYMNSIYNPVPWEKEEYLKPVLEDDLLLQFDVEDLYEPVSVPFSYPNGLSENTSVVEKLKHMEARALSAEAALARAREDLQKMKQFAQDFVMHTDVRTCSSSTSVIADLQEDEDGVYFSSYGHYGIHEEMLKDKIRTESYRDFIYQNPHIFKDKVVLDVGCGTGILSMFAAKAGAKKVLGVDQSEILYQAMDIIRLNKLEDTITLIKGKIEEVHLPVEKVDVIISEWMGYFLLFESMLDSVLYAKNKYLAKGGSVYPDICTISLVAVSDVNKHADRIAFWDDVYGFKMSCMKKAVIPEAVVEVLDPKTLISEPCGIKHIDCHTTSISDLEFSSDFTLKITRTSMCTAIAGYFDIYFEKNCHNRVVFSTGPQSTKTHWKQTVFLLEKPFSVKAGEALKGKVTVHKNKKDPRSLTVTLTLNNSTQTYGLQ
PRMT5/MEP50, sequence (O14744 whole entry): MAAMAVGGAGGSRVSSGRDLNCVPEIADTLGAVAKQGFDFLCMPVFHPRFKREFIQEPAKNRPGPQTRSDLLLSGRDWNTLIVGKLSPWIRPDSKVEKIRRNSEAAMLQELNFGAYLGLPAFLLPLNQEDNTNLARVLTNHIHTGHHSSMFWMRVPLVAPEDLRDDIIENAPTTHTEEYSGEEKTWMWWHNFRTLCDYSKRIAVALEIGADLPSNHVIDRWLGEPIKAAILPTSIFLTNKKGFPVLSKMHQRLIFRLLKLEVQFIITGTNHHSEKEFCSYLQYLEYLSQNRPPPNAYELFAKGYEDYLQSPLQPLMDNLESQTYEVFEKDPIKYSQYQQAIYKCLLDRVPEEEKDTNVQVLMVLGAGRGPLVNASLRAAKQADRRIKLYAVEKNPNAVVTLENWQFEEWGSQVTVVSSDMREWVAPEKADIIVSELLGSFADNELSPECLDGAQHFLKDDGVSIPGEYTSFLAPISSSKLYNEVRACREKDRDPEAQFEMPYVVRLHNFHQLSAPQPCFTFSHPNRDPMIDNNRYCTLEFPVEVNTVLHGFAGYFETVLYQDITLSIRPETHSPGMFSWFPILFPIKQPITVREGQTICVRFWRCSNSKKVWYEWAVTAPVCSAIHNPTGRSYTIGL
PRMT5/MEP50, sequence (Q9BQA1 whole entry partner): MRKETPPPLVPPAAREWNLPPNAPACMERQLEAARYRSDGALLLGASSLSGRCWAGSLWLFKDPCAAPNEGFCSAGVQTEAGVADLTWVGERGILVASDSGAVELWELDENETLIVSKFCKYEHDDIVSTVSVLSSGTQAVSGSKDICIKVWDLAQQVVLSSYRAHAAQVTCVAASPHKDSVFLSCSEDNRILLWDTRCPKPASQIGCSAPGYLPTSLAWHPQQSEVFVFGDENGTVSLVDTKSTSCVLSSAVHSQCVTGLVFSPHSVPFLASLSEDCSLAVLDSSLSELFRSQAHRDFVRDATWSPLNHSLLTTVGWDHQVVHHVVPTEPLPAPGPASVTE
PRMT9, sequence (Q6P2P2 whole entry): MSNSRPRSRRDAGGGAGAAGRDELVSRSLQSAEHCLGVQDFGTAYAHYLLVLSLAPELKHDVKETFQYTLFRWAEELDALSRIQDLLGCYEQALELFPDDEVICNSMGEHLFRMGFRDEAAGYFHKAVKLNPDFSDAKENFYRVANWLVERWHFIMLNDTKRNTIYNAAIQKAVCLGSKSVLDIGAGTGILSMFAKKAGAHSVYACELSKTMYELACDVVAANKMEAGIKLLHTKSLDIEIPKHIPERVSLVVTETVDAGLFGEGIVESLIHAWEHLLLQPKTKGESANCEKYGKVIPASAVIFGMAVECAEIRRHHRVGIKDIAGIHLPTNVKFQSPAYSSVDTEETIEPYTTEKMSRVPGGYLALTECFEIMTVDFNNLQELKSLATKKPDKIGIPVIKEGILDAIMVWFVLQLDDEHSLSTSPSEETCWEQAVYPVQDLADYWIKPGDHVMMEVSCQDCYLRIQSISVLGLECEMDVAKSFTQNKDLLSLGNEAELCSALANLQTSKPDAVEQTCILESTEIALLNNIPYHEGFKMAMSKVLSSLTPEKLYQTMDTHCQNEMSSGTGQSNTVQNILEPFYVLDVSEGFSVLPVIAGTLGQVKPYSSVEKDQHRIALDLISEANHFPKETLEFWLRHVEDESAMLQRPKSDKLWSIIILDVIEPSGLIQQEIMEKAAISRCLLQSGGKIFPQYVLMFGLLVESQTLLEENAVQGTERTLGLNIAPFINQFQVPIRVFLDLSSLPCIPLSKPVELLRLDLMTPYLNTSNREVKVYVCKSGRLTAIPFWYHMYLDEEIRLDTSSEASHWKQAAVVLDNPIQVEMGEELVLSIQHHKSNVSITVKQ

## CCOCC1(COCC)CCC(c2n[nH]cc2CN(C)CCNC)CC1 [Compound A]
[1]; 150 QD mg/kg oral
  Body weight Difference (vs. vehicle): −4%
[1]; 300 QD mg/kg oral
  Body weight Difference (vs. vehicle): −3%
  Regression: 37%
[1]; 450 QD mg/kg oral
  Body weight Difference (vs. vehicle): −8%
  Regression: 58%
[1]; 600 QD mg/kg oral
  Body weight Difference (vs. vehicle): −7%
  Regression: 62%
[1]; Toledo xenograft, oral daily, 28 days
  doses at which regressions were observed: ≥ 300 mg/kg
[1]; any dose group, 150-600 mg/kg daily
  body weight loss: no significant body weight loss
PRMT8; [6]
  inhibition of activity: inhibited the activity
PRMT8; increasing preincubation times
  time dependence of inhibition: time dependent inhibitor
PRMT3; [6]
  inhibition of activity: inhibited the activity
PRMT3; increasing preincubation times
  time dependence of inhibition: no time dependent behavior
PRMT4; [6]
  inhibition of activity: inhibited the activity
PRMT4; increasing preincubation times
  time dependence of inhibition: time dependent inhibitor
[2]; 600 mg/kg daily
  body weight loss: Significant body weight loss
[2]; 150 QD mg/kg oral, Day 59
  Body weight Difference (vs. vehicle): −3%
[2]; 300 QD mg/kg oral, Day 59
  Body weight Difference (vs. vehicle): −4%
  Regression: 2%
[2]; 450 QD mg/kg oral, Day 59
  Body weight Difference (vs. vehicle): −7%
  Regression: 15%
[2]; [7]
  Body weight Difference (vs. vehicle): −17%
  Regression: 6%
[2]; ACHN xenograft, oral daily
  doses at which regressions were observed: ≥ 300 mg/kg
NSCLC cell lines
  % Cytotoxic: 16%
  % gIC100 < 2: 0%
G-401
  Ymin − T0: 353.7
NOMO-1
  gIC100: 29.33 ± 0.00 µM
NOMO-1; negative = cell death
  Ymin − T0: 259.1
SHI-1
  gIC100: 29.33 ± 0.02 µM
SHI-1; negative = cell death
  Ymin − T0: 292.0
SKM-1
  gIC100: 11.61 ± 5.52 µM
SKM-1; negative = cell death
  Ymin − T0: −19.1
HT144
  Ymin − T0: 124.9
  gIC100: 29.33 ± 0.00 µM
MV-4-11
  gIC100: 14.55 ± 4.27 µM
MV-4-11; negative = cell death
  Ymin − T0: 565.6
[3]; 6-day proliferation
  Median gIC100: 29.34 µM
[3]; percent of cell lines
  % Cytotoxic: 0%
  % gIC100 < 2: 0%
MDA-MB-
  Ymin − T0: 19.1
  gIC100: 29.33 ± 0.00 µM
Colon cancer cell lines
  % Cytotoxic: 3%
  % gIC100 < 2: 0%
SW156
  Ymin − T0: 346.7
[4]; 37.5 QD mg/kg oral
  Body weight Difference (vs. vehicle): −5%
[4]; 75 BID mg/kg oral
  Body weight Difference (vs. vehicle): −4%
[4]; 75 QD mg/kg oral
  Body weight Difference (vs. vehicle): −5%
[4]; 150 QD mg/kg oral
  Body weight Difference (vs. vehicle): −7%
[4]; any dose group, 37.5-150 mg/kg QD or 75 mg/kg BID
  body weight loss: No significant body weight loss
PRMT5/MEP50
  inhibition of activity: failed to inhibit
U2932
  concentration giving accumulation of cells in sub-G1: 10 µM
OCI-Ly1
  concentration giving accumulation of cells in sub-G1: 10 µM
Toledo; after 3 days
  concentration giving accumulation of cells in sub-G1: ≥ 1000 nM
Toledo; by day 7
  concentration giving increase in sub-G1 population: ≥ 100 nM
[5]
  time to maximal decrease of 45 kDa ADMA band: 72 to 96 h
  time to near maximal increase in MMA: ≤ 48 h
[5]; up to 120 hours
  change in ADMA methylation: decreased
  change in MMA: increased
  change in SDMA: increase
PRMT9
  inhibition of activity: failed to inhibit
